Assays:
Format in all cases: cell-based
[1] = tested on: Micrococcus luteus BKM Ac-2230; experiment: Antibacterial activity (MIC/MBC), serial dilutions in liquid MH medium; settings: for MIC: 20 h, MH medium
Method: (§1) The antibacterial activity of compounds was determined against Bacillus subtilis BKM B-501, Staphylococcus aureus 209P, Enterococcus faecalis BKM B-871, and Micrococcus luteus BKM Ac-2230 strains (acquired from the All-Russia Collection of Microorganisms at the Institute for Biochemistry and Physiology of Microorganisms, Russian Academy of Sciences). The main parameters characterizing the antibacterial activity are the minimal inhibitory concentration (MIC) and minimal bactericidal concentration (MBC). […] MBC is the least concentration that causes the death of all cells.
(§2) MIC was quantified by inhibiting culture growth in a liquid medium with serial dilutions of compounds using a modified procedure [Amsterdam, D., “Susceptibility Testing of Antimicrobials in Liquid Media,” in Antibiotics in Laboratory Medicine, Ed. by Lorian, V., 4th ed., Baltimore: Williams and Wilkins, 1996, pp. 52-111].
(§3) Bacteria were cultured and tests were carried out on an MH liquid medium (Mueller-Hinton medium: a dry extract of beef broth, 4 g/L; starch, 1.5 g/L; casein hydrolyzate, 17.5 g/L; Sigma-Fluka Catalog No. 70192) at 37° C., 100% humidity, and under stirring. Cultures (4th through 7th receeding post-thawing) in the exponential growth phase were used for tests.
(§4) Therefore, a correction for absorption was applied in estimating the optical density of bacterial suspensions for each compound with account for its concentration in the well.
(§5) The protocol for experimental antibacterial activity determination for tested compounds was as follows. A cryovial with the test strain culture (Bacillus subtilis BKIVI B-501, Staphylococcus aureus 209P, Enterococcus faecalis BKM B-871, or Micrococcus luteus BKIVI Ac-2230) in a medium with 7% DMSO stored in liquid nitrogen, was rapidly defrosted, and 1.5 mL of the fresh MH medium was inoculated with 100 μL of the cell suspension. Cells were grown for one day at 37° C. and stirred on an orbital shaker at 150 rpm. The morphologic features of the strain and the absence of contamination with foreign bacteria were verified by: (a) inoculation on an agarized (15 g/L agar) MH medium and observation of the shape and color of the grown colonies and (b) examination of characteristic morphologic features under a microscope (Mikmed-2, LOMO, Russia) equipped with a 40× objective lens. Further bacteria were cultured in 1 mL of the liquid MH medium at 37° C. under stirring. The cells were reseeded every day. Cell cultures were used in tests starting with 3rd reseeding and ending with 6th one.
(§6) For testing, 5 μL of a bacterial suspension in the stationary growth phase was transferred to 1 mL of a sterile MH medium and incubated until the exponential growth phase was attained (3 to 5 h, 37° C., stirring at 150 rpm). To estimate the microorganisms concentration, the optical density (A) of the resulting bacterial culture was measured at a wavelength of 595 nm. The value of A=0.2 measured from a […] portion of the cell suspension in a 96-well plate, with a correction for the medium absorption applied, was set to correspond to 4×10^8 cells/mL for both strains used. Taking into account the cell concentration measurements, the suspension was diluted with the MH medium to a concentration of from 5×10^4 to 1×10^5 cells/mL and transferred to a sterile 96-well plate in an amount of 100 μL, per well. Then, the cells were added with tested compounds and twofold serial dilutions of these compounds in plate's wells were made.
(§7) The controls used were: 100 μL of an additive-free bacterial culture (four wells); a bacterial culture added with 1% DMSO or water in the same volume as in the wells with the maximal concentration of the tested compounds (four wells); and 100 μL of the sterile MH medium without bacteria and without tested compounds for control of occasional contamination in the plate (four wells).

[2] = tested on: Staphylococcus aureus 209P; experiment: as above; settings: for MIC: 20 h, MH medium
Method: as §1, §2, §3, §4, §5, §6, §7

[3] = tested on: Bacillus subtilis BKM B-501; experiment: as above; settings: for MIC: 20 h, MH medium
Method: as §1, §2, §3, §4, §5, §6, §7

[4] = tested on: Enterococcus faecalis BKM B-871; experiment: as above; settings: for MIC: 20 h, MH medium
Method: as §1, §2, §3, §4, §5, §6, §7

[5] = tested on: Staphylococcus aureus No. 25923 ATCC; experiment: Specific activity against resistant bacterial strains; settings: St. aureus 25923; 24 h, 36° C.
Method: (§8) The tested agents were water-soluble hemin derivatives (compounds VII and XVIII) or DMSO-soluble derivatives (compounds VIII, XV, and XIV). Vancomycin was the reference compound. Each compound was tested in three replicas.
(§9) Sterile single-use flat-bottomed 96-well plates, Petri dishes, pipettes, tips, and test tubes (Pan-Eco, Moscow) were used in the study.
(§10) The nutritional media used were as follows. A working Mueller Hinton broth was prepared from dry media (Mueller Hinton broth, Acumedia, Baltimore) and sterilized by autoclaving at 121° C. for 15 min.
(§11) Staphylococcus aureus was cultured on the Tripticase Soy Agar (BBL) commercially available dry medium. Enterococcus faecalis was cultured on the Columbia Agar Base (BBL) commercially available dry medium. These media were sterilized by autoclaving at 121° C. for 15 min.
(§12) Bacterial inoculum was fixed and equal to 5×10^5 CFU/mL.
(§13) For water-soluble compounds, wells from 2nd through 8th were added with the solvent (water) in an amount of 15 μL per well, then the 1st well was added with 30 μL of the stock solution of the tested compound in water with a concentration of 1×10^3M, and the concentration was adjusted to 0.007×10^3 M by serial twofold dilutions. A 10-μL portion was taken from every well, and 190 μL of the bacterial culture (10^5 CFU) was added per well.
(§14) For DMSO-soluble compounds, wells from 2nd through 8th were added with the solvent (DMSO) in an amount of 10 μL per well, then the 1st well was added with 20 μL of the stock solution of the tested compound in […] with a concentration of 5×10^3M, and the concentration was adjusted to 0.039×10^3 M by serial twofold dilutions. A 2-μL portion was taken from each well, and 198 μL of the bacterial culture (10^5 CFU) was added per well.
(§15) The control comprised wells free of tested compounds (culture growth control). In addition, purity control of nutritional media and solvents was used. Plates were incubated in a thermostat at 36° C. for 24 hours.
(§16) Culture growth was evaluated visually by comparison of how microorganisms grew in the presence of tested compounds and in the absence of them. MSC (the minimal suppressing concentration) was set equal to the last dilution of a tested agent which suppressed bacterial culture growth.

[6] = tested on: Staphylococcus aureus No. 100 KC; experiment: as above; settings: St. aureus 100 KC; 24 h, 36° C.
Method: as §8, §9, §10, §11, §12, §13, §14, §15, §16

[7] = tested on: Staphylococcus epidermidis No. 533; experiment: as above; settings: St. epiderm 533; 24 h, 36° C.
Method: as §8, §9, §10, §11, §12, §13, §14, §15, §16

[8] = tested on: Enterococcus faecalis No. 559; experiment: as above; settings: Ent. faecalis 559; 24 h, 36° C.
Method: as §8, §9, §10, §11, §12, §13, §14, §15, §16

SMILES | MBC [1] | MIC [1] | MBC [2] | MBC [3] | MBC [4] | MIC [4] | MICs for hemin derivatives against Gr+ strains [5] | MICs for hemin derivatives against Gr+ strains [6] | MICs for hemin derivatives against Gr+ strains [7] | MICs for hemin derivatives against Gr+ strains [8] | MIC [2] | MIC [3]
C=CC1=C(C)c2cc3[n-]c(cc4nc(cc5[n-]c(cc1n2)c(C)c5CCC(=O)N[C@@H](CCC(=O)N[C@@H](CCCNC(=N)N)C(=O)OC)C(=O)N[C@@H](CCCNC(=N)N)C(=O)OC)C(CCC(=O)N[C@@H](CCC(=O)N[C@@H](CCCNC(=N)N)C(=O)OC)C(=O)N[C@@H](CCCNC(=N)N)C(=O)OC)=C4C)c(C)c3C=C.[Cl-].[Fe+3] [Compound XVIII, 6,7-bis[bis(N^α-L-Arginyl Methyl Ester)-L-Glutamyl]-Protohemin IX] | 12.5 µM | 3.1 µM | >50^2 μM | Not reached | >50^3 μM | 12.5 µM | 7.8e-07 M | 1.56 µM | 0.78 µM | 0.78 µM |  | 
C=CC1=C(C)c2cc3[n-]c(cc4nc(cc5[n-]c(cc1n2)c(C)c5CCC(=O)N[C@@H](CCCNC(=N)N)C(=O)OC)C(CCC(=O)N[C@@H](CCCNC(=N)N)C(=O)OC)=C4C)c(C)c3C=C.[Cl-].[Fe+3] [VII] | 6.3 µM |  | 200 µM | 3.1 ± 0.8 µM | 400 µM | 50 µM | 2.5. ×10^−5 M | 50 µM | 25 µM | 25 µM |  | 
C=CC1=C(C)c2cc3[n-]c(cc4[n-]c(cc5nc(cc1n2)C(C)=C5C=C)c(C)c4CCC(=O)O)c(CCC(=O)O)c3C.[Cl-].[Fe+3] [Hem, hemin] | 25 µM | 12.5 µM | 200 µM | 50 ± 13 µM | >1000 µM | 1000 µM | >1e-05 M | >10 µM | >10 µM | >10 µM | 100 µM | 13 ± 4 µM
C=CC1=C(C)c2cc3[n-]c(cc4nc(cc5[n-]c(cc1n2)c(C)c5CCC(=O)NCCO)C(CCC(=O)NCCO)=C4C)c(C)c3C=C.[Cl-].[Fe+3] [Compound XIV, Protohemin IX 6,7-bis-N-(2-Hydroxyethyl)amide] | 1.6 µM | 0.8 µM | 3.2 µM | 6.3 ± 1.6 µM | 100 µM | 25 µM | 5.21e-06 M | >50 µM | 5.21 µM | 6.25 µM | 1.6 µM | 1.6 ± 0.4 µM
C=CC1=C(C)c2cc3[n-]c(cc4nc(cc5[n-]c(cc1n2)c(C)c5CCC(=O)N[C@@H](CO)C(=O)OC)C(CCC(=O)N[C@@H](CO)C(=O)OC)=C4C)c(C)c3C=C.[Cl-].[Fe+3] [VIII] | 12.5 µM |  | 200 µM | 9 ± 4 µM | 25 µM | 12.5 µM | 2.6e-06 M | 6.25 µM | 5.21 µM | 3.12 µM |  | 6.3 ± 1.6 µM
